According to EP2424865B1 (Boehringer Ingelheim International GmbH, priority 2009, dated 2010):
Where two headings read alike, the source gives them in different places.

How the values were obtained:
[1] = system: Plasma protein; experiment: Biological Test Example 5: fraction unbound in human plasma (equilibrium dialysis); format: in vitro ADME
[2] = biological target: human recombinant cytochrome P450 2C9 (Homo sapiens, UniProt P11712); experiment: Biological Test Example 7: CYP2C9 inhibition ([O-methyl-14C]-Naproxen O-demethylation)
human recombinant cytochrome P450 2C9, sequence (P11712 whole entry): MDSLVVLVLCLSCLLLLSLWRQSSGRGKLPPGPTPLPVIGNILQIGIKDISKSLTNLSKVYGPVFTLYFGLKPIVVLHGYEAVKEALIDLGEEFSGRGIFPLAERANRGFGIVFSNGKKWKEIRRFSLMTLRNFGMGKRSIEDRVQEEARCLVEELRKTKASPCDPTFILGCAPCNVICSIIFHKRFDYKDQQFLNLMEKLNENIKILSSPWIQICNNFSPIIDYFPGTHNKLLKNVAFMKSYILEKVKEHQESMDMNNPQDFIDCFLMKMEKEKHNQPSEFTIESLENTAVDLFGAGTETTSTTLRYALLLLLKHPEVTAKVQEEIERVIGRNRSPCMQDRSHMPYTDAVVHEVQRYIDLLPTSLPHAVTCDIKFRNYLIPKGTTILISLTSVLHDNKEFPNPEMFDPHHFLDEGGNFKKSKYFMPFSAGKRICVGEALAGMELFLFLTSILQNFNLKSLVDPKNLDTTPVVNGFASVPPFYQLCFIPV

[3] = biological target: human recombinant cytochrome P450 2C19 (Homo sapiens, UniProt P33261); experiment: Biological Test Example 8: CYP2C19 inhibition ([N-methyl-14C]-Diazepam N-demethylation)
human recombinant cytochrome P450 2C19, sequence (P33261 whole entry): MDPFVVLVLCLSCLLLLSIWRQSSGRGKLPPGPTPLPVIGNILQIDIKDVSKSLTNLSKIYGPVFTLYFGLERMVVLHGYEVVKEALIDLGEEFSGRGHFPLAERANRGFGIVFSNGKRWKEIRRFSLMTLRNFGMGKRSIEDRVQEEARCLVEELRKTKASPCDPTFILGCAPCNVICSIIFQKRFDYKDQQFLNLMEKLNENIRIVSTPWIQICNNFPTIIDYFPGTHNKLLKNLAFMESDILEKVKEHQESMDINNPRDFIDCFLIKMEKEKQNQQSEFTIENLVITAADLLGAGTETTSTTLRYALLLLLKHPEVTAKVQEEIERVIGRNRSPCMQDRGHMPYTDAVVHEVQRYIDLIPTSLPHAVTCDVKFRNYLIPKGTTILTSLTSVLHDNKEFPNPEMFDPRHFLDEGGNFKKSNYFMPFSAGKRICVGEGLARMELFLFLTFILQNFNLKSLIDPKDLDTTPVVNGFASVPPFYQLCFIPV

[4] = biological target: human recombinant cytochrome P450 3A4 (Homo sapiens, UniProt P08684)
human recombinant cytochrome P450 3A4, sequence (P08684 whole entry): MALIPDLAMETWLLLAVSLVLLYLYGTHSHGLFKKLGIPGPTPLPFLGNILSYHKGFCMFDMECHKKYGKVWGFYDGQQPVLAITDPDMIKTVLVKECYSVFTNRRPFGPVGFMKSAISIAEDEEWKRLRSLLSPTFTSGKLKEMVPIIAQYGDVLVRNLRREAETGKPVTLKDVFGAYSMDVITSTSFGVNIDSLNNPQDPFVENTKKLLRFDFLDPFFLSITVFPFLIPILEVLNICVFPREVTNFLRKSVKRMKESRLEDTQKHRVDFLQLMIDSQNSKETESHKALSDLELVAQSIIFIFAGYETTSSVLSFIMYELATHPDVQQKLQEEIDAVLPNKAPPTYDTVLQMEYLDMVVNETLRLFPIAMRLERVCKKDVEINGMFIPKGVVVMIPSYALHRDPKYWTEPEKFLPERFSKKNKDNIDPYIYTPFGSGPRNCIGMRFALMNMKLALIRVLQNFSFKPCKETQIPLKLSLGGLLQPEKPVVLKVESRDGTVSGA

[5] = biological target: CYP2C9 (Homo sapiens, UniProt P11712); experiment: Biological Test Example 9: CYP2C9 inhibition (Invitrogen kit, fluorogenic substrate OOMR); format: in vitro ADME
CYP2C9, sequence (P11712 whole entry): as the sequence (P11712 whole entry) above

[6] = Invitrogen kit, fluorogenic substrate OOMR

| Structure (SMILES) | Biological Test Example 5 (%) ([1]; Examples) | IC50 [2] [µM] | IC50 [3] [µM] | IC50 [4] [µM] | other results |
| --- | --- | --- | --- | --- | --- |
| C[C@@H](c1ccc(-c2ccn(C3CC3)c(=O)c2)cc1)N1CC[C@](CC(C)(C)O)(c2ccccc2)OC1=O [Example 75, 3-{(S)-1-[4-(1-Cyclopropyl-2-oxo-1,2-dihydro-pyridin-4-yl)-phenyl]-ethyl}-(S)-6-(2-hydroxy-2-methyl-propyl)-6-phenyl-[1,3]oxazinan-2-one] | 15.6 | 19 | 24 | 23 |  |
| C[C@@H](c1ccc(-c2ccc(=O)n(C3CC3)c2)cc1)N1CC[C@](CC(C)(C)O)(c2ccccc2)OC1=O [Example 3, (S)-3-((S)-1-(4-(1-cyclopropyl-6-oxo-1,6-dihydropyridin-3-yl)phenyl)ethyl)-6-(2-hydroxy-2-methylpropyl)-6-phenyl-1,3-oxazinan-2-one] |  | 38 |  | 44 | Biological Test Example 5 (%) ([1]; Comparator Compounds): 0.3% |
| C[C@@H](c1ccc(-c2ccc(=O)n(C)c2)cc1)N1CC[C@](CCCO)(c2ccccc2)OC1=O [Example 30, (R)-6-(3-hydroxypropyl)-3-((S)-1-(4-(1-methyl-6-oxo-1,6-dihydropyridin-3-yl)phenyl)ethyl)-6-phenyl-1,3-oxazinan-2-one] | 13.9 |  | 27 |  |  |
| C[C@@H](c1ccc(-c2ccn(CC(F)(F)F)c(=O)c2)cc1)N1CC[C@](CC(C)(C)O)(c2ccccc2)OC1=O [Example 66, (S)-6-(2-hydroxy-2-methylpropyl)-3-((S)-1-(4-(2-oxo-1-(2,2,2-trifluoroethyl)-1,2-dihydropyridin-4-yl)phenyl)ethyl)-6-phenyl-1,3-oxazinan-2-one] | 5.5 | 10 | 11 | 18 |  |
| CCn1cc(-c2ccc([C@H](C)N3CC[C@](CCCO)(c4ccccc4)OC3=O)cc2)ccc1=O [Example 43, (R)-3-((S)-1-(4-(1-ethyl-6-oxo-1,6-dihydropyridin-3-yl)phenyl)ethyl)-6-(3-hydroxypropyl)-6-phenyl-1,3-oxazinan-2-one] |  |  |  |  | IC50 [5]: 10.5 µM |
| C[C@@H](c1ccc(-c2ccc(=O)[nH]c2)cc1)N1CC[C@](CCCO)(c2ccccc2)OC1=O [Example 29, (R)-6-(3-hydroxypropyl)-3-((S)-1-(4-(6-oxo-1,6-dihydropyridin-3-yl)phenyl)ethyl)-6-phenyl-1,3-oxazinan-2-one] |  |  |  |  | IC50 [5, 6]: 7.5 µM |
| C[C@@H](c1ccc(-c2ccn(C)c(=O)c2)cc1)N1CC[C@](CCCO)(c2ccccc2)OC1=O [Example 47, (R)-6-(3-hydroxypropyl)-3-((S)-1-(4-(1-methyl-2-oxo-1,2-dihydropyridin-4-yl)phenyl)ethyl)-6-phenyl-1,3-oxazinan-2-one] |  |  |  |  | IC50 [5, 6]: 12.1 µM |
| C[C@@H](c1ccc(-c2ccc(=O)n(C)c2)cc1)N1CC[C@](CC(C)(C)NS(C)(=O)=O)(c2ccccc2)OC1=O [Example 11, N-(2-methyl-1-((S)-3-((S)-1-(4-(1-methyl-6-oxo-1,6-dihydropyridin-3-yl)phenyl)ethyl)-2-oxo-6-phenyl-1,3-oxazinan-6-yl)propan-2-yl)methanesulfonamide] |  |  |  |  | Biological Test Example 5 (%) ([1]; Comparator Compounds): 0.7% |
| CC[C@@H](c1ccc(-c2ccc(=O)n(C)c2)cc1)N1CC[C@](CC(C)(C)O)(c2ccccc2)OC1=O [Example 54, (S)-6-(2-hydroxy-2-methylpropyl)-3-((S)-1-(4-(1-methyl-6-oxo-1,6-dihydropyridin-3-yl)phenyl)propyl)-6-phenyl-1,3-oxazinan-2-one] | 9.1 |  | 18 |  |  |
| C[C@@H](c1ccc(-c2ccn(C)c(=O)c2)cc1)N1CC[C@](CC(C)(C)O)(c2ccccc2)OC1=O [Example 48, (S)-6-(2-hydroxy-2-methylpropyl)-3-((S)-1-(4-(1-methyl-2-oxo-1,2-dihydropyridin-4-yl)phenyl)ethyl)-6-phenyl-1,3-oxazinan-2-one] | 8.7 |  |  |  |  |
